Assay results taken from patent US20250057944A1, “OLIGOSACCHARIDE COMPLEXES AND USES” (BioNTech SE, priority 2021, published 2025).

Tests used:
[1] = Hydrodynamic diameter of complexes by dynamic light scattering; format: physicochemical
Procedure: Sizes of complexes described in the present examples were analyzed by DynaPro PlateReader II, using dynamic light scattering (DLS) for calculating the hydrodynamic diameter of complexes. […] Ten acquisitions are recorded per well, each lasting 5 seconds.

BALB/c mice [2] = details: mouse, in vivo
BALB/c mice [3] = assay: In-vivo luciferase expression in applied tissue after i.m. application of RNA complexes; details: N/P 6 (FIG. 7B)
C57BL/6 IFNAR −/− mice = format: in vivo
BALB/c mice [4] = details: mouse, in vivo; remark: listed apart in the source
hPBMCs = assay: Cytokine secretion by hPBMCs 24 h after transfection with modRNA formulations (MSD kit); format: cell-based, human; details: oligosaccharide:Tween40 1:0.5, modRNA, N/P 6, 24 hours (FIGS. 19A-D)
Procedure: All groups received modRNA formulated at N/P 6. Formulations were complexed with RNA in MBG Buffer (final concentration 5% w/v Glucose, 10 mM MES, pH 6.1), at RNA final concentration of 0.15 mg/ml and the mixing ratio of the RNA containing solution and the oligosaccharide+Tween40 containing solution was 9:1 (v:v) for all the cases. IL-6, TNF-α, IL-1β and IFN-γ secretion after 24 hours of transfection of […] hPMBCs was evaluated in the supernatants using MSD Kit Standard Protocol.

BALB/c mice [5] = assay: Intramuscular vaccination with HA modRNA formulated with oligosaccharide+Tween40 (Example 10); details: mouse, in vivo

## CCCCCCCCCC(=O)OC1C(OC(=O)CCCCCCCCC)[C@H](OC(=O)CCCCCCCCC)C(CSCCNC(=S)NCCN(C)C)O[C@@H]1O[C@H]1OC(CSCCNC(=S)NCCN(C)C)[C@@H](OC(=O)CCCCCCCCC)C(OC(=O)CCCCCCCCC)C1OC(=O)CCCCCCCCC (stereo partly drawn) [JLF41]
[1]; modRNA (FIG. 6A)
  Difference in particle size between N/P 1 and N/P 6: greater difference in particle size

## CCCCCCCCCC(=O)OC1C(OC(=O)CCCCCCCCC)[C@H](OC(=O)CCCCCCCCC)C(CSCCNC(=S)NCCN2CCOCC2)O[C@@H]1O[C@H]1OC(CSCCNC(=S)NCCN2CCOCC2)[C@@H](OC(=O)CCCCCCCCC)C(OC(=O)CCCCCCCCC)C1OC(=O)CCCCCCCCC (stereo partly drawn) [JLF99]
BALB/c mice [2]
  CD4-CD8 response versus LNP benchmark: no significant difference
  IgG against HA-antigen over the course of the experiment versus LNP benchmark: no apparent differences
  Serological concentration of IgG at the end-point (day 49): comparable to the LNP group
BALB/c mice [3]
  modRNA expression (bioluminescence normalized to the JLF41-modRNA group): promising modRNA expression
[1]; saRNA, N/P 6 (FIG. 5A)
  Hydrodynamic diameter: about 150 nm
C57BL/6 IFNAR −/− mice; JLF99+Tween40 1:0.5, 1.3 μg saRNA i.m., prime/boost d0/d28, N/P6
  Immunological response with CCHFV-Gc antigen: strong immunological response
C57BL/6 IFNAR −/− mice; mouse, in vivo
  Antibody level versus LNP: lower than the LNP
  Antibody levels versus LNP benchmark: identical to the ones achieved by the LNP benchmark
  T-cell responses against Gc-peptides: equally strong
BALB/c mice [4]
  Delivery of RNAs and immune response: functionally delivered all the RNAs upon i.m injection and elicited a strong immune response

## CCCCCCCCCC(=O)OC1C(OC(=O)CCCCCCCCC)[C@H](OC(=O)CCCCCCCCC)C(CSCCNC(=S)NCCn2ccnc2)O[C@@H]1O[C@H]1OC(CSCCNC(=S)NCCn2ccnc2)[C@@H](OC(=O)CCCCCCCCC)C(OC(=O)CCCCCCCCC)C1OC(=O)CCCCCCCCC (stereo partly drawn) [JLF110]
hPBMCs
  Level of secretion of pro-inflammatory cytokines, IL-6, TNF-α, IL-1β and IFN-γ: medium levels of secretion

## CCCCCCCCCC(=O)OC[C@@]1(O[C@H]2OC(CSCCNC(=S)NCCN3CCOCC3)[C@@H](OC(=O)CCCCCCCCC)[C@H](OC(=O)CCCCCCCCC)C2OC(=O)CCCCCCCCC)O[C@H](CSCCNC(=S)NCCN2CCOCC2)[C@@H](OC(=O)CCCCCCCCC)[C@@H]1OC(=O)CCCCCCCCC (stereo partly drawn) [JLF218]
BALB/c mice [5]
  IgG concentration against HA: then by JLF99 and JLF218

## CCCCCCCCCC(=O)OC1C(OC(=O)CCCCCCCCC)[C@H](OC(=O)CCCCCCCCC)C(CSCCNC(=S)NCCN2CCC(C(N)=O)CC2)O[C@@H]1O[C@H]1OC(CSCCNC(=S)NCCN2CCC(C(N)=O)CC2)[C@@H](OC(=O)CCCCCCCCC)C(OC(=O)CCCCCCCCC)C1OC(=O)CCCCCCCCC (stereo partly drawn) [JLF244]
BALB/c mice [5]
  IgG concentration against HA: highest IgG concentration
hPBMCs
  Level of secretion of pro-inflammatory cytokines, IL-6, TNF-α, IL-1β and IFN-γ: highest level of secretion
